We go through two molecules from patent US20240350511A1, “TREATMENT OF COVID-19” (priority 2021, published 2024).

The nature of series [1]: Dissolved fraction in gamma-cyclodextrin solution, filtered vs unfiltered absorbance at 300 nm. The format is physicochemical. To be noted: for bazedoxifene acetate dissolved: sonicated at 40° C. for 6 hours. On the procedure: 1.2 mL of a 40 mg/mL solution of GCD in distilled water was added into the microtube. The solution was sonicated at 40° C. for 6 hours. […] The concentration of GCD remained the same in all solutions, specifically 40 mg/mL.
Aliquots of the solutions were filtered through a 0.22 μm disc filter.
1.5 mL of a 40 mg/mL solution of gamma-cyclodextrin in saline was added into the microtube. The solution was sonicated at 40° C. for 6 hours. […] The concentration of gamma-cyclodextrin remained the same in all solutions, specifically 40 mg/mL.
1.2 mL of a 40 mg/mL solution of GCD in phosphate-buffered saline was added into the microtube. The solution was sonicated at 40° C. for 6 hours. […] The concentration of GCD remained the same in all solutions, specifically. 40 mg/ml.
The resulting mixture was ground for 20 minutes at a set grinding speed of 1000 rpm and a grinding temperature of 37° C.
20 mg of the ground mixture was weighed into a microtube and combined with 0.5 mL distilled water. The sample was then sonicated for 5 minutes at 45° C.
An aliquot of the sonicated solution was filtered through a 0.22 μm disc filter.

The nature of series [2]: Aggregation study: UV-Vis spectra before and after 0.22 μm filtration. The class given is physicochemical. The conditions noted are these: DMSO stock diluted with saline, 4 hours at room temperature, 0.22 μm disc filter. As to the method:
The drug concentration was […]. The sample was left for 4 hours at room temperature. UV-visible absorbance spectra of the solution before and after filtration (employing a 0.22 μm disc filter) were measured.
The formulations were placed in an ultrasonic bath at elevated temperature (40° C.) for 6 hours. After cooling to room temperature, UV-Vis spectra were measured for unfiltered solutions as well as for the solutions after filtration using a 0.22 μm disc filter.

For series [3] the following is noted: rats, bazedoxifene acetate in SBECD.
Series [4] is described as follows: clinical. To be noted: both, human, in vivo, inhaled or intranasal, 1.13 mg.
For series [5] the following is noted: healthy volunteers, inhalation of BAZE-X1 1.13 mg.

SMILES strings stand for the structures. Read-outs that look alike come from different tables or passages of the source.

For `Cc1c(-c2ccc(O)cc2)n(Cc2ccc(OCCN3CCCCCC3)cc2)c2ccc(O)cc12` [bazedoxifene acetate], the bazedoxifene acetate dissolved in series [1] (40 mg/mL GCD in distilled water) was 97%; in series [1] (40 mg/mL GCD in phosphate-buffered saline), 95%; in series [1] (40 mg/mL gamma-cyclodextrin in saline) it was 92%. Also, the “absorbance features of the drug after filtration (aggregation)” value in series [2] is “sharp decrease in absorbance features”.
For orientation: half-life means the time in which the quantity being followed falls by half. Lower therefore signals rapid decline. For `Cc1c(-c2ccc(O)cc2)n(Cc2ccc(OCCN3CCCCCC3)cc2)c2ccc(O)cc12` [bazedoxifene], the “pathological lesions in the lungs and trachea” value in series [3] (single intranasal 0.5 mg/kg) and in series [3] (single intravenous 0.5 mg/kg) was “did not cause pathological lesions” in each case. Moreover, the starting bazedoxifene dissolved in series [1] (mixture ground with GCD (50 mg:250 mg), 20 mg in 0.5 mL distilled water, sonicated 5 minutes at 45° C.) was 99%. The molecule further had a half-life in series [4] of 21 h. Besides, the “plasma levels (pg/mL) and AUC values (h·pg/mL)” value in series [5] is listed as “very low, in majority near the limit of quantitation”. In addition, the “time to maximum plasma concentration” value in series [5] (first measurement) was 10 min.
